Measurements: ChEMBL document CHEMBL1201862, “PubChem BioAssay data set” (2004)
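Test compounds were applied to cells in 96-well plates for 48 hours at 5 doses. GI50 is the concentration that inhibits growth by half.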 Active and inactive are the calls of the source. Cut-off read from the data, not from the text of the source: active = GI50 up to about 1.1 µM and inactive = higher.

Legend:
Assay in all cases: growth of human tumour cells (NCI), 48 h
MDA-MB-231 = test system: MDA-MB-231
HOP-62 = test system: HOP-62
A549 = test system: A549
HCC 2998 = test system: HCC 2998
KM12 = test system: KM12
SF-539 = test system: SF-539
UACC-62 = test system: UACC-62
OVCAR-4 = test system: OVCAR-4
UACC-257 = test system: UACC-257
EKVX = test system: EKVX
SW-620 = test system: SW-620
SF-295 = test system: SF-295
K562 = test system: K562
CCRF-CEM = test system: CCRF-CEM
COLO 205 = test system: COLO 205
RPMI-8226 = test system: RPMI-8226
OVCAR-3 = test system: OVCAR-3
LOX IMVI = test system: LOX IMVI
MDA-MB-435 = test system: MDA-MB-435
A498 = test system: A498

Measured: GI50

CCOC(=O)c1cc(NC(=O)c2ccccc2)c(=O)n2c(cc3c(Cl)cccc32)c1O
inactive: MDA-MB-231 > 100 µM | HOP-62 > 100 µM | A549 > 100 µM | HCC 2998 > 100 µM | KM12 > 100 µM | SF-539 > 100 µM | UACC-62 > 100 µM | OVCAR-4 > 100 µM | UACC-257 > 100 µM | EKVX > 100 µM | SW-620 > 100 µM | SF-295 57.4 µM | K562 > 100 µM | CCRF-CEM 95.5 µM | COLO 205 > 100 µM | RPMI-8226 80.4 µM | OVCAR-3 > 100 µM | LOX IMVI > 100 µM | MDA-MB-435 > 100 µM | A498 > 100 µM

N=C1N(c2ccccc2)C(=S)/C(=N/c2ccccc2)N1c1ccccc1
inactive: MDA-MB-231 8.73 µM | HOP-62 19.3 µM | A549 19.7 µM | HCC 2998 15.3 µM | KM12 14 µM | SF-539 12.4 µM | UACC-62 5.77 µM | OVCAR-4 12.7 µM | UACC-257 2.55 µM | EKVX 21.1 µM | SW-620 4.27 µM | SF-295 16.6 µM | K562 2.45 µM | CCRF-CEM 4.27 µM | COLO 205 3.3 µM | RPMI-8226 2.31 µM | OVCAR-3 2.28 µM | LOX IMVI 2.01 µM | MDA-MB-435 1.92 µM | A498 17.7 µM

CN(Cc1cnc2nc(N)nc(N)c2n1)c1ccc(C(=O)NC(CCC(=O)NCCC(P(=O)(O)O)P(=O)(O)O)C(=O)O)cc1 (stereo not given)
inactive: MDA-MB-231 > 100 µM | HOP-62 52.6 µM | A549 11.6 µM | HCC 2998 71.4 µM | KM12 6.38 µM | SF-539 10.3 µM | UACC-62 28.4 µM | OVCAR-4 > 100 µM | UACC-257 > 100 µM | EKVX 69.5 µM | SW-620 > 23.3 µM | SF-295 18.7 µM | K562 1.47 µM | CCRF-CEM 6.08 µM | COLO 205 > 82.6 µM | RPMI-8226 6.85 µM | OVCAR-3 37.2 µM | LOX IMVI 4.38 µM | MDA-MB-435 6.03 µM | A498 78 µM

Cc1ccc2nc(-c3ccc(C(C)(C)C)cc3)oc(=O)c2c1
inactive: MDA-MB-231 20.6 µM | HOP-62 27.9 µM | A549 14.6 µM | HCC 2998 14.6 µM | KM12 7.38 µM | SF-539 18.2 µM | UACC-62 17.5 µM | OVCAR-4 20.7 µM | UACC-257 18.9 µM | EKVX 20 µM | SW-620 26.3 µM | SF-295 17.8 µM | K562 17.3 µM | CCRF-CEM 20.7 µM | COLO 205 18.2 µM | RPMI-8226 21 µM | OVCAR-3 21.4 µM | LOX IMVI 16.4 µM | MDA-MB-435 14.7 µM | A498 24.8 µM

CSC(=S)OC1C(CO[Si](C)(C)C(C)(C)C)OC2OC(C)(C)OC21 (stereo not given)
inactive: MDA-MB-231 17.7 µM | HOP-62 18.4 µM | A549 25.5 µM | HCC 2998 21.3 µM | KM12 15.6 µM | SF-539 20.2 µM | UACC-62 17 µM | OVCAR-4 49.4 µM | UACC-257 17.1 µM | EKVX 20.3 µM | SW-620 17.3 µM | SF-295 17.4 µM | K562 17.1 µM | CCRF-CEM 16.7 µM | COLO 205 19.2 µM | RPMI-8226 16.3 µM | OVCAR-3 17 µM | LOX IMVI 15.7 µM | MDA-MB-435 33.2 µM | A498 21.8 µM
